Publication PMC6934184, “Selective DNA-PKcs inhibition extends the therapeutic index of localized radiotherapy and chemotherapy” (The Journal of Clinical Investigation, 2019)

Molecular target: T1, MLCK (MLCK2) (Homo sapiens, UniProt Q32MK0)
T1 construct: purchased Thermo Fisher Scientific (Life Technologies) SelectScreen
Test: SelectScreen LanthaScreen
Type: binding
Details: read-out: % displacement
Method in brief: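 NU5455 was profiled across the SelectScreen Broad panel of kinase activity and binding assays. Z'LYTE reactions such as CSF1R ran at apparent Km ATP, while the Adapta CAMK1 assay used ATP listed as 10. Values are given as percent.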

T1 sequence (Q32MK0 whole entry): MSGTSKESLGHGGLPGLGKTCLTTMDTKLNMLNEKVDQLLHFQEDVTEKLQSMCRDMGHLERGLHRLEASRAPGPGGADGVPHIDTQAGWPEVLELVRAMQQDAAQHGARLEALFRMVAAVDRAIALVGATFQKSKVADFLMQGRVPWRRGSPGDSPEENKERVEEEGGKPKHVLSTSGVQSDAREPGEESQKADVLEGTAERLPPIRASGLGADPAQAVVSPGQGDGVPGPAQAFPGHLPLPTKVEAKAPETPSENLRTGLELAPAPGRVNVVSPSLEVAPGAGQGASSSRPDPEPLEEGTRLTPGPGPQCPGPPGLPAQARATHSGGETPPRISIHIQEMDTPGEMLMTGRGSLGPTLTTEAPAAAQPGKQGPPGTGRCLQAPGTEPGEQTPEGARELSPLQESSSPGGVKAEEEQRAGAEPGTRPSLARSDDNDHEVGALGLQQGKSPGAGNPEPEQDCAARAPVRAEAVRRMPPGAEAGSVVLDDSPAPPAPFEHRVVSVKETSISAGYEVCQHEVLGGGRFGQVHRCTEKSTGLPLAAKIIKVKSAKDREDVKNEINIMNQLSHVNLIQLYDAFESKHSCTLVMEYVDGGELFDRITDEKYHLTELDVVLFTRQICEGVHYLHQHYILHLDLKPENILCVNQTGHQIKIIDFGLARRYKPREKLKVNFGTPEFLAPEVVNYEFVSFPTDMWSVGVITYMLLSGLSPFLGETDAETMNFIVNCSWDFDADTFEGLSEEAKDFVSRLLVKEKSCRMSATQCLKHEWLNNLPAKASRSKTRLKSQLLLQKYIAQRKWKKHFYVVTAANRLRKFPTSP

In the case of CN(C(=O)CN1CCOCC1)c1ccc2sc3c(-c4cccc5c(=O)cc(N6CC7CCC(C6)O7)oc45)cccc3c2c1 [NU5455], the inhibition at 1 µM was 1.5%.
